BigSolDB 2.1

Details: in ethanol

CC(C)C1=CC2=CC[C@@H]3[C@](C)(CCC[C@@]3(C)C(=O)O)[C@H]2CC1
Details | solubility (mole fraction)
285.07 K | 0.0165
288.7 K | 0.0183
292 K | 0.0202
294.8 K | 0.0219
297.05 K | 0.0235
299.63 K | 0.0253
301.8 K | 0.0272
304.05 K | 0.0291
306.05 K | 0.0311
308.22 K | 0.0335
310.35 K | 0.036
312.35 K | 0.0385
315.23 K | 0.041
316.85 K | 0.0439
319.03 K | 0.0467
